In test [1] the test system is MDA-MB-231 triple-negative metastatic breast cancer cells. The test is described as follows: Antitumor activity in engrafted athymic mice. It counts as in vivo, ATH490 athymic mice. The settings on record: for tumor volume Day 0 / tumor volume Day 6: Tax 10 mg/kg i.v. once/week, CTR 30 mg/kg i.p. every 3-4 days, combinations Tax 5 + CTR 15 mg/kg once/week; for tumor volume Day 6: sham 105.03; for tumor volume Day 14 / tumor volume Day 17 / tumor volume Day 20 / tumor volume Day 24 / tumor volume Day 27 / tumor volume Day 30: same doses; for tumor volume Day 14: sham 136.66; for tumor volume Day 17: sham 162.62; for tumor volume Day 20: sham 192.69; for tumor volume Day 24: sham 268.08; for tumor volume Day 27: sham 426.87; for tumor volume Day 30: sham 557.66. On the procedure: The animals were then immediately euthanized by carbon dioxide. […]
Supplementary Table S2. A typical treatment protocol of engrafted mice with CTR alone or in
combination with paclitaxel.
Treatment Dos a ge Frequ enc y Route Notes
Sham control Highest volume E v e r y 3-4 d a ys Intraperitoneal (I.P.) Vehicle onl y
Taxa 10 mg/kgb Once/week Intravenous ( I.V.)
CTR-17 (30) 30 mg/kg E v e r y 3-4 d a ys I. P .
CTR-20 (30) 30 mg/kg E v e r y 3-4 d a ys I. P .
Supplementary Table S 3: Antitumor activity of CTR -17 and CTR -20, alone or in combination
a Tax: paclitaxel. b mg per kg of bod y wei ght. c unit is mm 3. […]

For test [2], the target named is T1, MRP1 (Homo sapiens, UniProt P33527).
T1 construct: expressed in transfected cells; host or cells: HEK293-MRP1 (gift of Dr. Susan Cole)
T1 sequence (P33527 whole entry): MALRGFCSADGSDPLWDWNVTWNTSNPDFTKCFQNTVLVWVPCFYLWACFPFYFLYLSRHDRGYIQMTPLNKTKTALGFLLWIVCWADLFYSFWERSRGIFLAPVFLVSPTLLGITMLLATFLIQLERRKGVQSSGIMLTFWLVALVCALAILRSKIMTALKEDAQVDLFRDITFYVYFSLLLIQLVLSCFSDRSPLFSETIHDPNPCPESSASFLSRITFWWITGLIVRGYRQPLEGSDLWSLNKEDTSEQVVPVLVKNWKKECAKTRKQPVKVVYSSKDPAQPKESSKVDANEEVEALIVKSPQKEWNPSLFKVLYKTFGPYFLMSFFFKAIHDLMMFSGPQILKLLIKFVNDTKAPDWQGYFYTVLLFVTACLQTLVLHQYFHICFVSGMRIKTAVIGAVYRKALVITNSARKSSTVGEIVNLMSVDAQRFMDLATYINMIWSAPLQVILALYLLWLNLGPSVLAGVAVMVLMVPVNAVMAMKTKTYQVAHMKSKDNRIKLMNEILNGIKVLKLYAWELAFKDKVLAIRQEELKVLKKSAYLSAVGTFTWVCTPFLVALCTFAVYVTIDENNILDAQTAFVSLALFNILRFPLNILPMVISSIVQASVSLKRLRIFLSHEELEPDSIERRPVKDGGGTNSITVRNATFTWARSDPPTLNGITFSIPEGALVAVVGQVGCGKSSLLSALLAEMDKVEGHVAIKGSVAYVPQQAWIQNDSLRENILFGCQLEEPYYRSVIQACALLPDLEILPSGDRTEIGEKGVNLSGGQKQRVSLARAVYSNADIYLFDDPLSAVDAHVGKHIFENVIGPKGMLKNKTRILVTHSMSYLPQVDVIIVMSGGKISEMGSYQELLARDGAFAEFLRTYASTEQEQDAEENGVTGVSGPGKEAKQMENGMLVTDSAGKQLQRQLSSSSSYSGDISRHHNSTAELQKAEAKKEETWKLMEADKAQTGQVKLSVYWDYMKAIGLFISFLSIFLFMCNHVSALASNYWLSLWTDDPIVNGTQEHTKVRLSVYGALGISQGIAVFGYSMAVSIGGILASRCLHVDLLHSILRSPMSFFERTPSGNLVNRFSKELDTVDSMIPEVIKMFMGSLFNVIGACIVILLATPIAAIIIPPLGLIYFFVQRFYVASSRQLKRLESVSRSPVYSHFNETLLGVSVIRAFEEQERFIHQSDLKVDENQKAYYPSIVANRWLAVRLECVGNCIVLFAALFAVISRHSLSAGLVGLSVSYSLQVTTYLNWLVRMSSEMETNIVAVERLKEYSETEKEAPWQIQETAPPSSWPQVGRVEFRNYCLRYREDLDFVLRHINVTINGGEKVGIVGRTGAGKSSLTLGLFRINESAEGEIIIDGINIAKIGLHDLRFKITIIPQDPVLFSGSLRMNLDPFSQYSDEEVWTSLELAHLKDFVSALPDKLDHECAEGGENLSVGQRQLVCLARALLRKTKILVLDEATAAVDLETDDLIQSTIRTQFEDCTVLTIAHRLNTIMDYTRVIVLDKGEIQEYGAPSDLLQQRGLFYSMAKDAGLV
The test is described as follows: Rh123 dye efflux assay, HEK293-MRP1 cells. It counts as cell-based. The settings on record: 22 µmol/L of drug, DMSO control 39.6%. As for the experimental part: Rhodamine123 (Rh123) drug efflux was carried out using a Multidrug-Resistance Direct Dye Efflux Activity Kit (Millipore, Darmstadt, Germany), with some modifications. […] Reading was carried out with a Beckman Coulter FC500 flow cytometer.

Test [3] has as its system MCF 10AT1. In words: SRB cell survival, MCF 10A isogenic lines. The settings on record: 0.39 μmol/L; MCF 10AT1 (premalignant). It counts as cell-based. As for the experimental part:
(§1) and MCF10AT1 cells were cultured in Dulbecco's Modified Eagle's Medium/Ham's Nutrient Mixture F-12 (DME/F12) supplemented with 10% (volume/volume) FBS , 100 μg/ml streptom ycin and 100 units/ml penicillin, antim ycotic solution, 0.5 μg/ml hydrocortisone, 10 ng/ml human epiderm al growth factor (hEGF) and 5 μg/ml insulin, whereas MCF10CA1a cell line was cultured in DM EM supplemented with 10% FBS (volume/volume). KB-3- 1, parental human epidermoid carcinoma cell line and KB-C2, an isogenic MDR1- overexpressing drug-resistant cell line, were kindl y provided b y Dr. Amit K Tiwari, the Universit y of Toledo, OH.
(§2) Parental HEK293 and M RP1- overexpressing HEK293- MRP1 isogenic cel ls were kind gifts of Dr. Susan Cole (Queen’s Universit y, Kingston, Ontario, Canada). The pacl itaxel-resistant MDA-MB-231TaxR cell line was generated in house b y culturing MDA-MB-231 cells (purchased from ATCC and authen ticated ) in the gradual l y incr easi ng con centr ations of pacl itax el until the concentration reached to 100 nM. Cell line authentication was carried out by Genetica DNA Laboratories (Burlington, NC) using a short tandem repeat (STR) profiling method (March 2015; […]
(§3) Cell viability, com binational i ndex and cell synchronization
(§4) Cell viability and proliferation were ex amined using a s ulforhodamine B (SRB) assa y as described previousl y (Hu et al., 2008). IC 50 values were calculat ed from si gmoidal dose-response cu rves gen erat ed b y at least two indepen dent ex periments , with each quadruplicate samples, using GraphPad Prism v.5.04 software (GraphPad Software, Inc, La J olla, CA). For combinational experiments on the KB -C-2 cells, CTR compounds and pacli taxel or ABT - 737/ABT-199 w ere us ed at or below IC 50 . The combinational index (CI) w as calculat ed as previousl y described (Chou, 2006). […]
(§5) Cell cycl e pro gr ession in the absence (sham) o r pr esence o f compound(s ) was determined with a Beckman Coulter Epics Elite FC 500 Flow C ytom eter as described previousl y (Romero

For test [4], the system named is MCF 10CA1a. The test is described as follows: SRB cell survival, MCF 10A isogenic lines. It counts as cell-based. To be noted: 0.39 μmol/L; MCF 10AC1a (fully malignant). On the procedure: as §1, §2, §3, §4, §5
Test [5] relates to MCF 10A. The test is described as follows: SRB cell survival, MCF 10A isogenic lines. It counts as cell-based. To be noted: 0.39 μmol/L; MCF 10A (non-cancer). On the procedure: as §1, §2, §3, §4, §5
Test [6] concerns the target T1, MRP1. The test is described as follows: Calcein-AM retention assay, HEK293-MRP1 cells. It is filed as cell-based. The settings on record: 22 µmol/L, DMSO control 52%.

Here are results for two compounds from PMC5578999, “Novel quinolone chalcones targeting colchicine-binding pocket kill multidrug-resistant cancer cells by inhibiting tubulin activity and MRP1 function” (Scientific Reports, 2017).

For `COc1ccccc1C(=O)/C=C/c1cc2ccccc2[nH]c1=O` [CTR-17, (E)-3-(3-(2-Methoxyphenyl)-3-oxoprop-1-enyl)quinolin-2(1H)-one], in test [1], the “tumor volume Day 0” value came to 86.71 mm3, the “tumor volume Day 6” value is given as 63.99 mm3, the “tumor volume Day 14” value is given as 90.07 mm3 and the “tumor volume Day 17” value stood at 128.36 mm3. For the same compound, in test [1], the “tumor volume Day 20” value was 134.76 mm3, the “tumor volume Day 24” value came to 160.86 mm3, the “tumor volume Day 27” value came to 189.45 mm3 and the “tumor volume Day 30” value worked out at 209.84 mm3.
For `COc1ccc2[nH]c(=O)c(/C=C/C(=O)c3ccccc3OC)cc2c1` [CTR-20, (E)-6-Methoxy-3-(3-(2-methoxyphenyl)-3-oxoprop-1-enyl) quinolin-2(1H)-one], in test [1], the “tumor volume Day 0” value is reported as 92.51 mm3, the “tumor volume Day 6” value was determined as 69.89 mm3, the “tumor volume Day 14” value was 84.64 mm3 and the “tumor volume Day 17” value is recorded as 97.11 mm3. In addition, in test [1], the “tumor volume Day 20” value stood at 97.22 mm3, the “tumor volume Day 24” value stood at 106.26 mm3, the “tumor volume Day 27” value came out at 124.88 mm3 and the “tumor volume Day 30” value was 140.63 mm3. The compound further had a Rh123 retention in test [2] of 81.7%. The cell survival rate in test [3] worked out at 20%. In addition, the cell survival rate in test [4] is on record as 10%. Moreover, in test [5], the cell survival rate turned out to be 75%. Moreover, the “calcein-AM retained in the cells” value in test [6] was 72%.
